How the values were obtained:
human kidney (NHEK) = assay: XTT toxicity assay on human kidney cells; type: cell-based
Method: (§1) FIG. 4: Determination of compound toxicity on GSC and normal human cells. (A) GB5 were incubated with growing concentration of Compounds 9a-b and 18a. (B) human normal neural stem cell (NNSC), human normal kidney cells (NHEK), human normal hepatocytes (HEPRG) and (C) human endothelial cells (HUVEC) were treated with growing concentration of Compound 9a. 7 days later, the cells were subjected to an XTT assays as described in the method section. The results are the meaning of at least two separate experiments. Cell death was confirmed by trypan blue staining (not shown).
HEK293 (human embryonic kidney cell) were grown in DMEM supplemented with glutamax and 10% foetal calf serum.
(§2) V—Toxicity tests: NNSC, GB5, TG6, HEK293, and HepaRG, HUVEC were seeded at 2000 cells/well in 96 wells plate in their respective culture mediums alone or containing growing concentration from 10 to 500 uM of Compounds 9a-b. Cultures were incubated 4 days and the cellular toxicity has been evaluated by XTT assays. Cell viability has been also assessed by counting living and dead cells with trypan blue staining.
(§3) XTT assays allows, through cell metabolism measurement, to determine a cytotoxic/cytostatic effects. Compounds 9a-b and 18a were tested for their eventual toxicity by XTT assays as described in the material and method section. […]

[1] = system: normal neural stem cells (NNSC); assay: XTT toxicity assay on normal neural stem cells; type: cell-based
Method: as §1, §2
as §3, with “section. At the working concentrations 10 to 25 uM, the compounds are not toxic for GSC (FIG. 4A).” for “section.”

NESTIN expression in GB5 = assay: NESTIN expression by immunofluorescence in GB5; type: cell-based, human; details: GB5, seven days
Method: (§4) FIG. 2: Compounds 9a-b and 18a-b effect on stemness marker expression, clonal expansion and mitosis in GB5 cells. (A) NESTIN expression was assessed by immunofluorescence in GB5 treated with increasing amount of Compounds 9a-b and 18a. The number of NESTIN positive cells was counted for each treatment and express as percentage of the control (100%). The results are the meaning of at least two separate experiments. […] (C) Clonal expansion analysis was performed with GB5 cells as described in the material and method section. Two and three weeks later, the number of spheroids is counted and reported as percentage of the initial number of cells in the well. The results are the meaning of a minimum of two separate experiments. (D) The number of mitosis in the culture was determined by the detection of the number of cells positive for histone H3 phosphorylated on ser-10 (H3-ser10). H3-ser10 expression was assessed by immunofluorescence in GB5 treated with increasing amount of Compounds 9a-b and 18a. The number of positive cells was counted for each treatment and express as percentage of the control (100%). The results are the meaning of at least two separate experiments.
III—Immunofluorescence assay: TG6 and GB5 were seeded at 2000 cells/well in 24 wells plate in NS34+ alone or containing 5, 7.5, 10, 12.5, 15, 20 and 25 uM of Compounds 9a-b and 18a-b. Cultures were incubated 4 days and the cells were fixed with 4% paraformaldehyde for 10 min at room temperature then washed with PBS. Cells were then incubated with ammonium chloride at 20 mM 5 min at room temperature and washed 5 times with PBS. Blocking and hybridization were realized in PBS containing 10% FCS and 0.1% Triton X100. Anti-Nestin and anti-H3Phospho serine 10 antibodies were incubated 2 hours at room temperature then washed with PBS. Fluorescence coupled secondary antibodies and Hoechst 33342 nuclei counterstaining reagent were hybridized one hour at room temperature. Cells were mounted with anti-fading agent then imaged, counted and quantified using fluorescent microscopy (TiE Nikon) and NiS software (Nikon).
Patient derived GSC (GB5) have been treated during seven days, with growing concentrations of compounds that have been capable of inducing changes of GSC morphology. To assess the consequence on stemness maintenance, we observed, by immunofluorescence, the expression of stemness and progenitor cells such as the NESTIN protein. […] The strongest effect has been obtained with Compounds 9a treatment (IC50=10 uM).

GB5 cells [2] = assay: TMZ assay: GSC sensitivity to Temozolomide (XTT); type: cell-based, human; details: three days
Method: FIG. 5: Sensitivity to TMZ was assessed by comparing the percentage of dead cells between TMZ treated GB5 and TMZ treated GB5 in combination with Compound 9a. GB5 cells have been treated with 400 uM TMZ alone or in combination with growing concentrations of Compounds 9a-b and 18b. The results are the meaning of at least two separate experiments.
IV—TMZ assay: TG6 and GB5 were seeded at 2000 cells/well in 96 wells plate in NS34+ or treated with medium containing 400 uM of TMZ alone or mixed with 10, 25 and 50 uM of Compounds 9a-b and 18a-b. Cultures were incubated 4 days and the cell viability has been evaluated by XTT assays and a count of living and dead cells with trypan blue staining.
Temozolomide is the chemotherapy of reference for GBM treatment. In order to assess whether the compounds might sensitize GSC to TMZ, TMZ (400 uM) pretreated GB5 cells were incubated with 10, 25 and 50 uM of Compounds 9a-b and 18b. Three days later the experiment is stop and the cells were subjected to an XTT assays. […] Cell toxicity was confirmed by trypan blue staining.

[3] = system: human hepatocytes (HEPRG); assay: XTT toxicity assay on human hepatocytes; type: cell-based
Method: as §1
HepaRG™ are terminally differentiated hepatic cells derived from a human hepatic progenitor cell that retains many characteristics of primary human hepatocytes. HepaRG were grown in William's E Medium supplemented with Tox medium supplement and glutamax.
as §2
XTT assays allows, through cell metabolism measurement, to determine a cytotoxic/cytostatic effects. […]

GB5 cells [4] = assay: Clonal expansion (clonal proliferation) of GB5; type: cell-based, human
Method: as §4
Clonal proliferation: TG6 and GB5 were seeded at 10 cells/well in 96 wells plate in NS34+ medium alone or containing growing concentration of Compounds 9a-b and 18a-b. Immediately after seeding, the real number of cells in the well was determined by direct count. Two and three weeks later, the resulting number of spheroids in each well was evaluated by a direct count. The % of clonal efficiency was calculated in dividing […].
It was further investigated the effects of selected compounds on GSC clonal expansion as well as their capacity of mitosis (FIGS. 2B and C). Compounds 9a-b and 18a treatment altered GSC clonal expansion and mitosis. The most efficient inhibition of clonal expansion was provided by Compound 9a treatment (IC50<10 uM) while both Compounds 9a-b were the most efficient for mitosis inhibition (IC50<10 uM) (FIGS. 2C and D).

With NCCCCNCCCNC(=O)c1csc(-c2csc(CCNC(=O)CCc3cn(CC4OC(OC5C(O)C(N)CC(N)C5OC5OC(CN)C(O)C(O)C5N)C(O)C4OC4OC(CN)C(O)C(O)C4N)nn3)n2)n1 (stereo not drawn) [Compound 9a, N-(3-((4-Aminobutyl)amino)propyl)-2′-(2-(3-(1-methyl-1H-1,2,3-triazol-4-yl)propanamido)ethyl)-[2,4′-bithiazole]-4-carboxamide-neomycin] the “toxicity (XTT)” value (human kidney (NHEK); 100 uM and above) was “toxic”, the “toxicity (XTT)” value (human kidney (NHEK); between 10 to 50 uM) was “not toxic” and the “toxicity (XTT)” value ([1]; 100 uM and above) was “toxic”. The “toxicity (XTT)” value ([1]; between 10 to 50 uM) was “not toxic”, the NESTIN expression (NESTIN expression in GB5; growing concentrations) was “drop in NESTIN expression” and the IC50 (NESTIN expression in GB5; Homo sapiens, 168 h) was 10 µM. For the same compound, the “increase of TMZ sensitivity” value (GB5 cells [2]; GB5, TMZ 400 uM plus compound at 10 uM) was 2 fold, the “increase of TMZ sensitivity, maximal effect” value (GB5 cells [2]; GB5, TMZ 400 uM plus compound at 50 uM) was 2.9 fold and the “toxicity (XTT)” value ([3]; 100 uM and above) was “toxic”. For the same compound, the “toxicity (XTT)” value ([3]; between 10 to 50 uM) was “not toxic”, the GSC clonal expansion (GB5 cells [4]; GB5, spheroids counted after two and three weeks) was “altered” and the IC50 (GB5 cells [4]; Homo sapiens, GB5, read-out: inhibition of clonal expansion IC50) was < 10 µM.
